Test results published in patent US20240358693A1, “METHODS OF TREATING PAIN” (Aisa Pharma, Inc., priority 2023, published 2024).

System: participants with SSc-RP
Assay: Scleroderma Health Assessment Questionnaire (SHAQ): disability indices and visual analog scales
Assay type: in vivo, human
Settings: PP Population, Part A, SSc patients, sensitivity analysis
Source text: The standard, validated, patient reported outcome measures tool for SSc patients, the Scleroderma Health Assessment Questionnaire (SHAQ), will be used to assess the participant qualify of life. Details are attached in the Appendix. The participant quality of life will be scored, and a disability index calculated for each questionnaire completed by the patient at Screening and each in-clinic visit. The absolute change in participant quality of life from baseline to the end of each dosing period will be calculated similar to frequency data as before.
The SHAQ includes a Raynaud's VAS, which will be reported at screening and each in-clinic visit. The absolute change in Raynaud-VAS, assessed by the participants response to the SHAQ question ‘In the past 7 days, how much have your Raynaud's interfered with your daily activities?’ at baseline and the end of each dosing period will be calculated similar to frequency data as before.
The SHAQ is used to calculate a Disability Index to assess the participant qualify of life. The eight categories assessed by the Disability Index are 1) dressing and grooming, 2) arising, 3) eating, 4) walking, 5) hygiene, 6) reach, 7) grip, and 8) common daily activities. For each of these categories, patients report the amount of difficulty they have in performing two or three specific activities.
There are four possible responses for the Disability Index questions: • Without any difficulty=0 • With some difficulty=1 • With much difficulty=2 • Unable to do=3. • The highest score reported by the patient for any component question of the eight categories determines the score for that category. • If a component question is left blank or the response is too ambiguous to assign a score, then the score for that category is determined by the remaining completed question(s). • If all component questions are blank or if more than one answer is given, then follow up with the respondent is required. • If the respondent's mark is between the response columns, then move it to the closest one. If it's directly between the two, move it to the higher one.
Each of the disability items on the SHAQ has a companion aids/devices variable that is used to record what type(s) of assistance, if any, the participant uses for his/her usual activities. These variables (see below) are coded as follows: • 0=No assistance is needed. • 1=A special device is used by the patient in his/her usual activities. • 2=The patient usually needs help from another person. • 3=The patient usually needs BOTH a special device AND help from another person.
The scoring variables and scoring rules permit the computation of two disability indices, the Standard Disability Index and the Alternative Disability Index.
This question results in a new set of category scores that are computed by adjusting the score for each category, if necessary, based on the patient's use of an aid or device or assistance for that category. If either devices and/or help from another person are checked for a category, the score is set to “2”, unless the score is already “3” (i.e., scores of “0” or “1” are increased to “2”). For example, if the highest score for the dressing category is “1”, and the patient says they use a device for dressing, the computed category score would be “2”. The sum of the computed categories scores is then calculated and divided by the number of categories answered. This gives a score in the 0 to 3 range.
The aid and device variables are not used to calculate the alternative disability index; it is calculated by adding the scores for each of the categories and dividing by the number of categories answered. This gives a score in the 0 to 3 range.
The standard, validated, patient reported outcome measures tool for SSc patients, the SHAQ, was collected at the time points specified in the study schedules (FIG. 2 and FIGS. 4A and 4B) to assess the participant's quality of life. The SHAQ included a Raynaud's VAS that will also be reported separately.

[1] = Day 12 vs baseline, Subject 01-110 Day 12 score excluded
[2] = In-Clinic Visit (Day 12), Subject 01-110 Day 12 score excluded

Question: With `COCCOC(=O)C1=C(C)NC(C)=C(C(=O)OC/C=C/c2ccccc2)C1c1cccc([N+](=O)[O-])c1` (stereo not drawn) [Any Cilnidipine] as the molecule, how does the “SHAQ Visual Analogue Scale - Raynaud’s, Change from Baseline, Min” value (Day 12 vs baseline) read?
Answer: −4.10

Question: What about the “SHAQ Visual Analogue Scale - Raynaud’s, Change from Baseline, Q1” value (Day 12 vs baseline) of the same molecule?
Answer: −1.000

Question: And the “SHAQ Visual Analogue Scale - Raynaud’s, Change from Baseline, Q3” value (Day 12 vs baseline)?
Answer: 0.000

Question: What about the “SHAQ Visual Analogue Scale - Raynaud’s, Percent Change from Baseline, Max” value (Day 12 vs baseline) of the same molecule?
Answer: 136.4%

Question: And the “SHAQ Visual Analogue Scale - Raynaud’s, Percent Change from Baseline, Mean” value (Day 12 vs baseline)?
Answer: −20.44%

Question: What about the “SHAQ Visual Analogue Scale - Raynaud’s, Percent Change from Baseline, Median” value (Day 12 vs baseline) of the same molecule?
Answer: −33.33%

Question: And the “SHAQ Visual Analogue Scale - Raynaud’s, Percent Change from Baseline, Min” value (Day 12 vs baseline)?
Answer: −100.0%

Question: What about the “SHAQ Visual Analogue Scale - Raynaud’s, Percent Change from Baseline, Q1” value (Day 12 vs baseline) of the same molecule?
Answer: −50.62%

Question: And the “SHAQ Visual Analogue Scale - Raynaud’s, Percent Change from Baseline, Q3” value (Day 12 vs baseline)?
Answer: 0.00%

Question: What about the “SHAQ Visual Analogue Scale - Breathing Problems, Change from Baseline, Max” value [1] of the same molecule?
Answer: 3.70

Question: And the “SHAQ Visual Analogue Scale - Breathing Problems, Change from Baseline, Mean” value [1]?
Answer: 0.025

Question: What about the “SHAQ Visual Analogue Scale - Breathing Problems, Change from Baseline, Median” value [1] of the same molecule?
Answer: 0.000

Question: What about the “SHAQ Visual Analogue Scale - Breathing Problems, Change from Baseline, Min” value [1] of the same molecule?
Answer: −2.00

Question: And the “SHAQ Visual Analogue Scale - Breathing Problems, Change from Baseline, Q1” value [1]?
Answer: −0.700

Question: What about the “SHAQ Visual Analogue Scale - Breathing Problems, Change from Baseline, Q3” value [1] of the same molecule?
Answer: 0.450

Question: What about the “SHAQ Visual Analogue Scale - Breathing Problems, Percent Change from Baseline, Max” value [1] of the same molecule?
Answer: 600.0%

Question: What about the “SHAQ Visual Analogue Scale - Breathing Problems, Percent Change from Baseline, Mean” value [1] of the same molecule?
Answer: 50.12%

Question: What about the “SHAQ Visual Analogue Scale - Breathing Problems, Percent Change from Baseline, Median” value [1] of the same molecule?
Answer: −16.00%

Question: And the “SHAQ Visual Analogue Scale - Breathing Problems, Percent Change from Baseline, Min” value [1]?
Answer: −100.0%

Question: What about the “SHAQ Visual Analogue Scale - Breathing Problems, Percent Change from Baseline, Q1” value [1] of the same molecule?
Answer: −75.00%

Question: And the “SHAQ Visual Analogue Scale - Breathing Problems, Percent Change from Baseline, Q3” value [1]?
Answer: 115.63%

Question: What about the “SHAQ Alternative Disability Index, Max” value (In-Clinic Visit (Day 12)) of the same molecule?
Answer: 1.50

Question: And the “SHAQ Alternative Disability Index, Mean” value (In-Clinic Visit (Day 12))?
Answer: 0.450

Question: What about the “SHAQ Alternative Disability Index, Median” value (In-Clinic Visit (Day 12)) of the same molecule?
Answer: 0.250

Question: And the “SHAQ Alternative Disability Index, Min” value (In-Clinic Visit (Day 12))?
Answer: 0.00

Question: And the “SHAQ Alternative Disability Index, Q1” value (In-Clinic Visit (Day 12))?
Answer: 0.000

Question: What about the “SHAQ Alternative Disability Index, Q3” value (In-Clinic Visit (Day 12)) of the same molecule?
Answer: 0.714

Question: What about the “SHAQ Visual Analogue Scale - Finger Ulcers, Max” value (In-Clinic Visit (Day 12)) of the same molecule?
Answer: 5.60

Question: What about the “SHAQ Visual Analogue Scale - Finger Ulcers, Mean” value (In-Clinic Visit (Day 12)) of the same molecule?
Answer: 0.731

Question: What about the “SHAQ Visual Analogue Scale - Finger Ulcers, Median” value (In-Clinic Visit (Day 12)) of the same molecule?
Answer: 0.000

Question: What about the “SHAQ Visual Analogue Scale - Finger Ulcers, Min” value (In-Clinic Visit (Day 12)) of the same molecule?
Answer: 0.00

Question: What about the “SHAQ Visual Analogue Scale - Finger Ulcers, Q1” value (In-Clinic Visit (Day 12)) of the same molecule?
Answer: 0.000

Question: And the “SHAQ Visual Analogue Scale - Finger Ulcers, Q3” value (In-Clinic Visit (Day 12))?
Answer: 0.900

Question: And the “SHAQ Visual Analogue Scale - Intestinal Problems, Max” value (In-Clinic Visit (Day 12))?
Answer: 4.50

Question: And the “SHAQ Visual Analogue Scale - Intestinal Problems, Mean” value (In-Clinic Visit (Day 12))?
Answer: 1.121

Question: What about the “SHAQ Visual Analogue Scale - Intestinal Problems, Median” value (In-Clinic Visit (Day 12)) of the same molecule?
Answer: 0.600

Question: And the “SHAQ Visual Analogue Scale - Intestinal Problems, Min” value (In-Clinic Visit (Day 12))?
Answer: 0.00

Question: What about the “SHAQ Visual Analogue Scale - Intestinal Problems, Q1” value (In-Clinic Visit (Day 12)) of the same molecule?
Answer: 0.000

Question: What about the “SHAQ Visual Analogue Scale - Intestinal Problems, Q3” value (In-Clinic Visit (Day 12)) of the same molecule?
Answer: 1.900

Question: What about the “SHAQ Visual Analogue Scale - Overall Disease Severity, Max” value (In-Clinic Visit (Day 12)) of the same molecule?
Answer: 7.30

Question: What about the “SHAQ Visual Analogue Scale - Overall Disease Severity, Mean” value (In-Clinic Visit (Day 12)) of the same molecule?
Answer: 2.203

Question: And the “SHAQ Visual Analogue Scale - Overall Disease Severity, Median” value (In-Clinic Visit (Day 12))?
Answer: 1.400

Question: What about the “SHAQ Visual Analogue Scale - Overall Disease Severity, Min” value (In-Clinic Visit (Day 12)) of the same molecule?
Answer: 0.00

Question: What about the “SHAQ Visual Analogue Scale - Overall Disease Severity, Q1” value (In-Clinic Visit (Day 12)) of the same molecule?
Answer: 0.800

Question: And the “SHAQ Visual Analogue Scale - Overall Disease Severity, Q3” value (In-Clinic Visit (Day 12))?
Answer: 3.050

Question: What about the “SHAQ Visual Analogue Scale - Pain, Max” value (In-Clinic Visit (Day 12)) of the same molecule?
Answer: 5.50

Question: What about the “SHAQ Visual Analogue Scale - Pain, Mean” value (In-Clinic Visit (Day 12)) of the same molecule?
Answer: 2.476

Question: And the “SHAQ Visual Analogue Scale - Pain, Median” value (In-Clinic Visit (Day 12))?
Answer: 2.200

Question: What about the “SHAQ Visual Analogue Scale - Pain, Min” value (In-Clinic Visit (Day 12)) of the same molecule?
Answer: 0.00

Question: What about the “SHAQ Visual Analogue Scale - Pain, Q1” value (In-Clinic Visit (Day 12)) of the same molecule?
Answer: 1.000

Question: What about the “SHAQ Visual Analogue Scale - Pain, Q3” value (In-Clinic Visit (Day 12)) of the same molecule?
Answer: 3.800

Question: And the “SHAQ Visual Analogue Scale - Raynaud’s, Max” value (In-Clinic Visit (Day 12))?
Answer: 5.20

Question: What about the “SHAQ Visual Analogue Scale - Raynaud’s, Mean” value (In-Clinic Visit (Day 12)) of the same molecule?
Answer: 2.022

Question: And the “SHAQ Visual Analogue Scale - Raynaud’s, Median” value (In-Clinic Visit (Day 12))?
Answer: 1.400

Question: And the “SHAQ Visual Analogue Scale - Raynaud’s, Min” value (In-Clinic Visit (Day 12))?
Answer: 0.00

Question: And the “SHAQ Visual Analogue Scale - Raynaud’s, Q1” value (In-Clinic Visit (Day 12))?
Answer: 0.500

Question: And the “SHAQ Visual Analogue Scale - Raynaud’s, Q3” value (In-Clinic Visit (Day 12))?
Answer: 4.000

Question: What about the “SHAQ Visual Analogue Scale - Breathing Problems, Max” value [2] of the same molecule?
Answer: 6.90

Question: And the “SHAQ Visual Analogue Scale - Breathing Problems, Mean” value [2]?
Answer: 1.388

Question: What about the “SHAQ Visual Analogue Scale - Breathing Problems, Median” value [2] of the same molecule?
Answer: 0.300

Question: And the “SHAQ Visual Analogue Scale - Breathing Problems, Min” value [2]?
Answer: 0.00

Question: And the “SHAQ Visual Analogue Scale - Breathing Problems, Q1” value [2]?
Answer: 0.000

Question: What about the “SHAQ Visual Analogue Scale - Breathing Problems, Q3” value [2] of the same molecule?
Answer: 1.800
